Patent US4490388A, “Amidine compound and anticomplement agent comprising same” (Torii & Co., Ltd., priority 1981, dated 1984)
Where two headings read alike, the source gives them in different places.

Key:
complement = experiment: Inhibition of complement mediated hemolysis; format: cell-based; settings: read-out: Inhibition of complement mediated hemolysis (%)
Method: The complement mediated hemolysis is widely used as a means to determine the titration of complement. The principle of this method is based on the fact that hemolysis is caused by the activation of complement, when the latter is added to a complex (immune complex) of erythrocytes and the autibody thereof. The degree of hemolysis varies in proportion to the amount of complement added. Therefore, when a known amount of complement admixed with a C1 esterase inhibitor is used, the hemolysis must be suppressed in proportion to the inhibitory activity.
The anti-C1 esterase (C1r, C1s) activity was determined according to the method of Okamura et al. [K. Okamura, M. Muramatsu and B. Fujii, Biochem. Biophys. […] The inhibition of complement mediated hemolysis was determined according to the method of Baker et al. [B. R. Baker and E. H. Erickson, J. Med. Chem., 12, 408-414 (1969)].

C1r = target: T1, C1r (Homo sapiens, UniProt P00736); experiment: Anti-C1 esterase activity, C1r (hydrolysis of AAME); format: biochemical; settings: for inhibition at 10 µM: at 1×10^-5 M, read-out: Anti-C1 activity, C1r percent inhibition; for IC50: molar concentration inhibiting 50% of AAME hydrolysis, read-out: Anti-C1 activity, C1r id50
T1 sequence (P00736 464-705 limits assumed): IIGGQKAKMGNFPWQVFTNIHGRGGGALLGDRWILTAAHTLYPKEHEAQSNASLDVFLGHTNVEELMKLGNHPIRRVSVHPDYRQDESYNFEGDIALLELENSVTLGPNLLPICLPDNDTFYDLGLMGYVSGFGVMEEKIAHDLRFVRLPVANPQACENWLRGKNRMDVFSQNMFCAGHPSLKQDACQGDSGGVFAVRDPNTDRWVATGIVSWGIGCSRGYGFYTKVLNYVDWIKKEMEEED
T1 sequence (P00736 18-463 partner limits assumed): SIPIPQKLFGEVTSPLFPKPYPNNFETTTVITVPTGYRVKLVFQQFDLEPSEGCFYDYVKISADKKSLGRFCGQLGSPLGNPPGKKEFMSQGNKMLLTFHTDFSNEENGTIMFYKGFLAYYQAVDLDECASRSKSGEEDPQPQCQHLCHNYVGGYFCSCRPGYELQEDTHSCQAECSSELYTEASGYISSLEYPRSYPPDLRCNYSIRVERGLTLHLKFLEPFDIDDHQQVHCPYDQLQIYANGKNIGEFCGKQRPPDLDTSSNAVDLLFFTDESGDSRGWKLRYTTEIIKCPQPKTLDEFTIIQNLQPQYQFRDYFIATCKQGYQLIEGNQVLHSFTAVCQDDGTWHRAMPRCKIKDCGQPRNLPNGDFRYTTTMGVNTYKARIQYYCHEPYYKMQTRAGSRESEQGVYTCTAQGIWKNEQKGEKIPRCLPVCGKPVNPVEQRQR
Method: The anti-C1 esterase (C1r, C1s) activity was determined according to the method of Okamura et al. [K. Okamura, M. Muramatsu and B. Fujii, Biochem. Biophys. […] The figures in Table 2 have the following meanings:
C1r: Molar concentration of the test compound which inhibits 50% of the ability of C1r to hydrolyse AAME (acetylarginin methyl ester) (id50).

Thrombin = Thrombin (Bos taurus, UniProt P00735); experiment: Anti-thrombin activity (hydrolysis of TAME); format: biochemical
Method: (§1) The anti-trypsin, anti-plasmin, anti-kallikrein and anti-thrombin activities were determined according to the method of Muramatsu et al. [M. Muramatsu, T. Onishi, S. Makino, Y. Hayashi and S. Fujii, J. of Biochem., 58, 214 (1965)]. The data summarized in Table 1 are expressed in terms of molar concentration (id50) of the test compound which inhibits 50% of the activity of each enzyme to hydrolyze TAME (tosylarginine methyl ester). The compound No. corresponds to the compound number shown in Examples.

Plasmin = Plasmin (Homo sapiens, UniProt P00747); experiment: Anti-plasmin activity (hydrolysis of TAME); format: biochemical
Chain of Plasmin (P00747 581-810 limits assumed): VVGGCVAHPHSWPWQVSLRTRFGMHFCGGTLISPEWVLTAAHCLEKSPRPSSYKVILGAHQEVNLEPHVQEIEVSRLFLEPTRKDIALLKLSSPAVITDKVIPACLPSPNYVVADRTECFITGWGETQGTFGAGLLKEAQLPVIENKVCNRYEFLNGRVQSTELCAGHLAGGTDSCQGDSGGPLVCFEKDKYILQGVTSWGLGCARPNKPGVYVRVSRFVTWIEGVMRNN
Chain of Plasmin (P00747 97-580 partner limits assumed): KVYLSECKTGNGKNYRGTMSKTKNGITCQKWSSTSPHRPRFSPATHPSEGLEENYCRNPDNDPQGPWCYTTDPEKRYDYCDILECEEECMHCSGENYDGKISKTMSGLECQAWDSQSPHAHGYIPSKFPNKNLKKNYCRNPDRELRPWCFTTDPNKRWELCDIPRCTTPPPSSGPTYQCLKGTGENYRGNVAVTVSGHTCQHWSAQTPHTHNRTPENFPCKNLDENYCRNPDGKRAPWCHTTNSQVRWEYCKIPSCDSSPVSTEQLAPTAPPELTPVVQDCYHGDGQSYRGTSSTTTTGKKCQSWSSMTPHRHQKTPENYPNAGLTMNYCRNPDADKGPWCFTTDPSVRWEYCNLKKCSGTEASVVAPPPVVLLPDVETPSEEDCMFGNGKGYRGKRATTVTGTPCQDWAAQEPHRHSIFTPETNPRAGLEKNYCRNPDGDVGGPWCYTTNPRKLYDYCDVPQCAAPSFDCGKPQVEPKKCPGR
Method: as §1

Trypsin = target: T2, Trypsin (Bos taurus, UniProt P00760); experiment: Anti-trypsin activity (hydrolysis of TAME); format: biochemical
T2 sequence (P00760 24-246): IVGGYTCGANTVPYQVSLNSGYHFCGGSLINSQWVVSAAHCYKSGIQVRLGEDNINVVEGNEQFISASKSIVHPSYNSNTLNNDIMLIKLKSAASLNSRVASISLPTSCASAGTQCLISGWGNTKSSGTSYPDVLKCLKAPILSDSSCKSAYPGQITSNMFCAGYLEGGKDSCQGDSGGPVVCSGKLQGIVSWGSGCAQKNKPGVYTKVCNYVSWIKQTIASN
Method: as §1

[1] = molar concentration inhibiting 50% of TAME hydrolysis, read-out: id50, Plasmin
[2] = molar concentration inhibiting 50% of TAME hydrolysis, read-out: id50, Trypsin

SMILES	inhibition at 10 µM (complement; 1 × 10^-5 M) [%]	inhibition at 1 µM (complement; 1 × 10^-6 M) [%]	inhibition at 0.1 µM (complement) [%]	inhibition at 100 µM (complement) [%]	inhibition at 100 µM (complement; 1 × 10^-4 M) [%]	inhibition at 0.1 µM (complement; 1 × 10^-7 M) [%]	inhibition at 1 µM (complement) [%]	inhibition at 10 µM (C1r) [%]	IC50 (Thrombin) [µM]	IC50 (Plasmin; [1]) [µM]	IC50 (Trypsin; [2]) [µM]	IC50 (C1r) [µM]	inhibition at 10 µM (complement) [%]	IC50 (Plasmin) [µM]	IC50 (Trypsin) [µM]
CC(=O)Oc1ccc(C=CC(=N)N)cc1 [Compound 1, 4-(β-amidinoethenyl)phenyl acetate]	71	64	10	99											
CC(C)CC(=O)Oc1ccc(C=CC(=N)N)cc1 [Compound 2, 4-(β-amidinoethenyl)phenyl isovalerate]	90				99	8	30								
CCCCCCC(=O)Oc1ccc(C=CC(=N)N)cc1 [Compound 3]	75			98		0		28	> 10	> 10	> 10				
CC=CC=CC(=O)Oc1ccc(C=CC(=N)N)cc1 [Compound 4]	99		12	100			86			0.9	0.4	5			
N=C(N)C=Cc1ccc(OC(=O)C2CC2)cc1 [Compound 5, 4-(β-amidinoethenyl)phenyl cyclopropanecarboxylate]	100	81			100	16				2	6	2			
N=C(N)C=Cc1ccc(OC(=O)C2CCCCC2)cc1 [Compound 6]	93	14			99	0									
N=C(N)C=Cc1ccc(OC(=O)CCCCCNC(=O)OCc2ccccc2)cc1 [Compound 7, 4-(β-amidinoethenyl)phenyl 6-benzyloxycarbonylaminocaproate]	64	13			98	14		31	> 10	5	7				
N=C(N)C=Cc1ccc(OC(=O)CCCCCN)cc1 [Compound 8, 4-(β-amidinoethenyl)phenyl 6-aminohexanoate]		9			27	0			> 10	> 10	2	> 10	15		
N=C(N)C=Cc1ccc(OC(=O)CCCCCNC(=N)N)cc1 [Compound 9, 4-(β-amidinoethenyl)phenyl 6-guanidinocaproate]	72				97	0	6	28	> 10	> 10	0.03				
N=C(N)C=Cc1ccc(OC(=O)[C@H]2CC[C@H](CN)CC2)cc1 [Compound 10, 4-(β-amidinoethenyl)phenyl trans-4-aminomethylcyclohexanecarboxylate]	99	98			100	74		46	> 10	6	6				
N=C(N)C=Cc1ccc(OC(=O)[C@H]2CC[C@H](CNC(=O)OCc3ccccc3)CC2)cc1 [Compound 11, 4-(β-amidinoethenyl)phenyl trans-4-benzyloxycarbonylaminomethylcyclohexanecarboxylate]	99	82	25	95					> 10	0.3	5	5			
N=C(N)C=Cc1ccc(OC(=O)Cc2ccccc2)cc1 [Compound 13, 4-(β-amidinoethenyl)phenyl phenylacetate]			0	99			6	21	5				31	10	1
N=C(N)C=Cc1ccc(OC(=O)CCCc2ccccc2)cc1 [Compound 16, 4-(β-amidinoethenyl)phenyl 4-phenylbutyrate]	34	0		96		0									
N=C(N)C=Cc1ccc(OC(=O)C=Cc2ccccc2)cc1 [Compound 17, 4-(β-amidinoethenyl)phenyl cinnamate]	97				93	58	83								
Cc1ccccc1C(=O)Oc1ccc(C=CC(=N)N)cc1 [Compound 18]	38	12			91	0									
Cc1cccc(C(=O)Oc2ccc(C=CC(=N)N)cc2)c1 [Compound 19]	98	65	37		95										
Cc1ccc(C(=O)Oc2ccc(C=CC(=N)N)cc2)cc1C [Compound 21]		37			87	22							88		
COc1ccc(C(=O)Oc2ccc(C=CC(=N)N)cc2)cc1 [Compound 23]	99	94			98	42									
COc1ccc(C(=O)Oc2ccc(C=CC(=N)N)cc2)cc1OC [Compound 24]	20	8			76	0									
COc1ccc(CCC(=O)Oc2ccc(C=CC(=N)N)cc2)cc1 [Compound 25]	0	0			62	0									
N=C(N)C=Cc1ccc(OC(=O)c2ccc3c(c2)OCO3)cc1 [Compound 27]	99	88			100	44									
COC(=O)c1ccc(C(=O)Oc2ccc(C=CC(=N)N)cc2)cc1 [Compound 29]	93	57			98	25									
CC(=O)Nc1ccc(C(=O)Oc2ccc(C=CC(=N)N)cc2)cc1 [Compound 31]	91	65			98	25									
N=C(N)C=Cc1ccc(OC(=O)c2ccc(CNC(=O)OCc3ccccc3)cc2)cc1 [Compound 33]		29		92		7							89		
CCC(=Cc1ccc(NC(=N)N)cc1)C(=O)Oc1ccc(C=CC(=N)N)cc1 [Compound 36]		8			93	0			5	> 10	5		40		
N=C(N)C=Cc1ccc(OC(=O)c2ccc([N+](=O)[O-])cc2)cc1 [Compound 37]	99	95			100	94									
N=C(N)C=Cc1ccc(OC(=O)CCCc2ccc([N+](=O)[O-])cc2)cc1 [Compound 38]	76	27			98	7									
N=C(N)C=Cc1ccc(OC(=O)C=Cc2ccccc2Cl)cc1 [Compound 40]		0			15	0							3		
